Reference: patent US11331299B2, “Medicinal use of serrulatane diterpenes” (The University of Sydney, priority 2016, dated 2022)
Where two headings read alike, the source gives them in different places.

How the values were obtained:
hDNMT3a = hDNMT3a (Homo sapiens, UniProt Q9Y6K1); assay: Epigenetic enzyme assay, DNA methyltransferases (DNMTs); format: biochemical
SETDB1 (h) = SETDB1 (h) (Homo sapiens, UniProt Q15047); assay: Epigenetic enzyme assay, Methyltransferases (MTs); format: biochemical
PRMT3 (h) = PRMT3 (h) (Homo sapiens, UniProt O60678); assay: Epigenetic enzyme assay, Methyltransferases (MTs); format: biochemical
hSMYD2 = hSMYD2 (Homo sapiens, UniProt Q9NRG4); assay: Epigenetic enzyme assay, Methyltransferases (MTs); format: biochemical
[1] = test system: HUVEC endothelium cells (normal cell line); assay: In vitro cell viability assay (intracellular ATP, 72 hour); format: cell-based; conditions: 10 μM; for % Cell growth: HUVEC, Endothelium (Normal)
[2] = test system: Hs695T melanoma cell line; assay: OncoPanel cell proliferation assay (10-day); format: cell-based; conditions: Homo sapiens, Hs 695T, Skin (Melanoma); for EC50: read-out: Cell Count EC50; for GI50: read-out: Cell Count GI50; for IC50: read-out: Cell Count IC50
[3] = test system: Rat L6 skeletal muscle cells; assay: [3H]-2-Deoxy-D-glucose uptake; format: cell-based; conditions: 10 μM; assay year 2016
Experimental: (§1) The in vitro pharmacological studies were conducted by Eurofins PanLab (Taiwan) using the parameters shown in Table 13 with respect to appropriate literature references.

[4] = target: T1, Thiopurine S-methyltransferase (h) (Homo sapiens, UniProt P51580); assay: Epigenetic enzyme assay, Small molecule methyltransferases; format: biochemical; conditions: read-out: % Inhibition of Control Values
T1 sequence (P51580 1-245): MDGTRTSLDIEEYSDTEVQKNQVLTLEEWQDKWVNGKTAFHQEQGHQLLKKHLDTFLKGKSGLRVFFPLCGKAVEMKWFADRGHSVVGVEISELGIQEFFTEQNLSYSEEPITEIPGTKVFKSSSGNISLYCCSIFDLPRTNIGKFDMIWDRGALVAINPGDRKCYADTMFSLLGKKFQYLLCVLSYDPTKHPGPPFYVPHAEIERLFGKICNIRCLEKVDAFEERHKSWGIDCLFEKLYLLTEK

[5] = target: MSK1(h) (substrate histone H3 full length) (Homo sapiens, UniProt O75582); assay: Epigenetic enzyme assay, Kinases; format: biochemical; conditions: read-out: % Inhibition of Control Values
[6] = target: T2, KAT2A (GCN5L2) (h) bromodomain (Homo sapiens, UniProt Q92830); assay: Epigenetic binding assay, Bromodomain; conditions: 10 μM; read-out: % Inhibition of Control Specific Binding
T2 construct: Bromodomain
T2 sequence (Q92830 728-832 limits assumed): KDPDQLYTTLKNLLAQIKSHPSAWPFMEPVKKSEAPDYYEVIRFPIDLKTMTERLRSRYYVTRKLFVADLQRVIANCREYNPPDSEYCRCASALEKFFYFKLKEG

NF-κB = assay: Transcription Response, NF-κB; format: cell-based, Human; conditions: Antagonist
Experimental: as §1

Histamine H4 = target: T3, Histamine H4 (Homo sapiens, UniProt Q9H3N8); assay: Histamine H4 radio ligand binding
T3 construct: expressed in transfected cells; host or cells: Chem-1 cells
Experimental: as §1

BAZ2B (h) bromodomain = target: T4, BAZ2B (h) bromodomain (Homo sapiens, UniProt Q9UIF8); assay: Epigenetic binding assay, Bromodomain; conditions: read-out: % Inhibition of Control Specific Binding
T4 construct: Bromodomain
T4 sequence (Q9UIF8 2060-2164 limits assumed): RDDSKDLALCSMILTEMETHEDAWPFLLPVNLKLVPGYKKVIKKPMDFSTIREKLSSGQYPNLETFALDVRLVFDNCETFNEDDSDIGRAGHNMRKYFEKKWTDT

[7] = target: T5, Phenylethanolamine N-methyltransferase (h) (Homo sapiens, UniProt P11086); assay: Epigenetic enzyme assay, Small molecule methyltransferases; format: biochemical; conditions: read-out: % Inhibition of Control Values
T5 sequence (P11086 1-282): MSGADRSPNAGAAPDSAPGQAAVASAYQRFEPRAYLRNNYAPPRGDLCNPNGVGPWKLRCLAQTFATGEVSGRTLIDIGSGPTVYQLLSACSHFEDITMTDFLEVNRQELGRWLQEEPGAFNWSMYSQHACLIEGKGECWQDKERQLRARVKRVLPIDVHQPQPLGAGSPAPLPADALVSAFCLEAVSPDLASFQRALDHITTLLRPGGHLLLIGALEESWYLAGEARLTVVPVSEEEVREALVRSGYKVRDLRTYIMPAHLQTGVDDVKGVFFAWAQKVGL

CECR2 (h) bromodomain = target: T6, CECR2 (h) bromodomain (Homo sapiens, UniProt Q9BXF3); assay: Epigenetic binding assay, Bromodomain; conditions: 10 μM; read-out: % Inhibition of Control Specific Binding
T6 construct: CECR2(h) bromodomain

[8] = target: T7, Protein Tyrosine Phosphatase, PTPN1 (PTP1B) (Homo sapiens, UniProt P18031); assay: Protein Tyrosine Phosphatase, PTPN1 (PTP1B); format: biochemical; conditions: assay year 2015, read-out: % Control Response
T7 construct: host or cells: E. coli
T7 sequence (P18031 1-435): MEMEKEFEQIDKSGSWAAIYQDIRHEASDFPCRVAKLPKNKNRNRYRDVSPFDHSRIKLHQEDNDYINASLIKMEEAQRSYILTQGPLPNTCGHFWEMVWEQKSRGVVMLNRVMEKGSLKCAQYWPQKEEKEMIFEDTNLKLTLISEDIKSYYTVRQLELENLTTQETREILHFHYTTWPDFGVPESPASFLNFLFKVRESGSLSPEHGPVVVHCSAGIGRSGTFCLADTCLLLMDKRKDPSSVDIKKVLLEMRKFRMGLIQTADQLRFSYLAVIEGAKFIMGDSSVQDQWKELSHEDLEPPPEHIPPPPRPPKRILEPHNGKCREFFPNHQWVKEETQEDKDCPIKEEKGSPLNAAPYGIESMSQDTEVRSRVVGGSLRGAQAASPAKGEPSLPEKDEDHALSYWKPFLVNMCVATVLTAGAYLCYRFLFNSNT
Experimental: as §1

BRD3(1) (h) bromodomain = target: T8, BRD3(1) (h) bromodomain (Homo sapiens, UniProt Q15059); assay: Epigenetic binding assay, Bromodomain; conditions: read-out: % Inhibition of Control Specific Binding
T8 construct: Bromodomain

[9] = 10 μM, read-out: % Inhibition of Control Values

hSMYD2, sequence (Q9NRG4 whole entry): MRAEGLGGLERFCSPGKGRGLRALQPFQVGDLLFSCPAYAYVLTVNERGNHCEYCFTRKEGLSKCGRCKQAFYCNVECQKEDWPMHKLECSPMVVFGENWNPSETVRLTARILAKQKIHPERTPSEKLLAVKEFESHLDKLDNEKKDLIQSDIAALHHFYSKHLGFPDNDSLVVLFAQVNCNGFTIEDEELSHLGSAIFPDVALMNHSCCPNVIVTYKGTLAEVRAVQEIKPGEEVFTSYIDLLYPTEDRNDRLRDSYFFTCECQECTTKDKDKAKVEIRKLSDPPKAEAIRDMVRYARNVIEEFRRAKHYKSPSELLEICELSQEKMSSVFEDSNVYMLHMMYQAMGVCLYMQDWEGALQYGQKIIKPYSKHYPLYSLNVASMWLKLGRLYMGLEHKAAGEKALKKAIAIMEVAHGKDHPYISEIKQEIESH
PRMT3 (h), sequence (O60678 whole entry): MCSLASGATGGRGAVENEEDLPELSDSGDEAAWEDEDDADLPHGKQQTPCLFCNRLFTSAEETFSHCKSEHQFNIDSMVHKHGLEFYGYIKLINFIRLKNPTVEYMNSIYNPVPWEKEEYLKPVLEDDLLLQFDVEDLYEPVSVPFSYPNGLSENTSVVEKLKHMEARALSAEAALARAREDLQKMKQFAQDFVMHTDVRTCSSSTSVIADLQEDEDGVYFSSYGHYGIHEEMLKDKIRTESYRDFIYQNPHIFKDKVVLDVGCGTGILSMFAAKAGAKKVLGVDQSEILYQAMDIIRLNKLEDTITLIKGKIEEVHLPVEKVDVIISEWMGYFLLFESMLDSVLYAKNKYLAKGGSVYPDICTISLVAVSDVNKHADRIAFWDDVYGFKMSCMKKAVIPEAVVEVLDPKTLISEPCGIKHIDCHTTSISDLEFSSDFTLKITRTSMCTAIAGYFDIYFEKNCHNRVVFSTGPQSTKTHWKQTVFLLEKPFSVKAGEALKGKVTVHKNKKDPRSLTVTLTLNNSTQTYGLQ
T3 sequence (Q9H3N8 whole entry): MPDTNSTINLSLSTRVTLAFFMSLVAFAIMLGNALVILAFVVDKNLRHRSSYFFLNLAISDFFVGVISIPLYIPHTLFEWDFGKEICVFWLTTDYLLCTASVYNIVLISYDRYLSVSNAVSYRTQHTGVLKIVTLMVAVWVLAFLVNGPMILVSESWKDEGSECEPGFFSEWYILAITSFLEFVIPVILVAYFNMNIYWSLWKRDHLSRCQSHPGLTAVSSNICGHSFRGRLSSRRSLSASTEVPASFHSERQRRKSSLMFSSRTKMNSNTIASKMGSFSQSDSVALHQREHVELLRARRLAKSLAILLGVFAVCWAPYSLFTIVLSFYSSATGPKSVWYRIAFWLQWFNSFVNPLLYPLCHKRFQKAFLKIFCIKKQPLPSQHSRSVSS
hDNMT3a, sequence (Q9Y6K1 whole entry, looked up): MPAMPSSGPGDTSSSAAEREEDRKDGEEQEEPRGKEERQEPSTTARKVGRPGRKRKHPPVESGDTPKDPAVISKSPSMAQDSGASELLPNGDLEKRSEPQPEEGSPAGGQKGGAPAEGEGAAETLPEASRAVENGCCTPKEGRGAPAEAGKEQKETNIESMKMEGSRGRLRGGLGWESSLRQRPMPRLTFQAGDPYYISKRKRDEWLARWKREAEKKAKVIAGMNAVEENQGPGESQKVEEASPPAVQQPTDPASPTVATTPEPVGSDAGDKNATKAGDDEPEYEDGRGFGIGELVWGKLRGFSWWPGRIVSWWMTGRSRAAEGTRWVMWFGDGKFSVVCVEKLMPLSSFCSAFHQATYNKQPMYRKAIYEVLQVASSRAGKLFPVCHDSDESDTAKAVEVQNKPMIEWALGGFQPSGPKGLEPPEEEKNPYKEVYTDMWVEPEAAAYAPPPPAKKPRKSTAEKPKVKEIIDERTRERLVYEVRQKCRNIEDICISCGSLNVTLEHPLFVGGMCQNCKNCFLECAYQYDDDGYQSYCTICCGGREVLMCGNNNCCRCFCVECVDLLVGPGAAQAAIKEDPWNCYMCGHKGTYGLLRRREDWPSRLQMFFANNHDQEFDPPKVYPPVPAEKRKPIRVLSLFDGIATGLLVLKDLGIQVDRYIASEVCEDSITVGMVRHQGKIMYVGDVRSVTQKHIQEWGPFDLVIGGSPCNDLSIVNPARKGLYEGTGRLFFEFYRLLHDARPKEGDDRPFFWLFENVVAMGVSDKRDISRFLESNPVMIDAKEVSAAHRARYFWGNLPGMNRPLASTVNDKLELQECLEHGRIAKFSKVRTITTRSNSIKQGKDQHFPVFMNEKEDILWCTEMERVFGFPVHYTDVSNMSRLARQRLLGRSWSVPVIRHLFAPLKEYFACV
T6 sequence (Q9BXF3 434-538 limits assumed): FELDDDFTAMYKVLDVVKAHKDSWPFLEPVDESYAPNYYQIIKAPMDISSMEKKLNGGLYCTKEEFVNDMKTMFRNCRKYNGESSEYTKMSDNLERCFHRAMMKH
T8 sequence (Q15059 34-140 limits assumed): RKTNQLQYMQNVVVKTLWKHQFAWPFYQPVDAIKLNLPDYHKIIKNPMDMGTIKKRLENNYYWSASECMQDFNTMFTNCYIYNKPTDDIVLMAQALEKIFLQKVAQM
MSK1(h) (substrate histone H3 full length), sequence (O75582 whole entry): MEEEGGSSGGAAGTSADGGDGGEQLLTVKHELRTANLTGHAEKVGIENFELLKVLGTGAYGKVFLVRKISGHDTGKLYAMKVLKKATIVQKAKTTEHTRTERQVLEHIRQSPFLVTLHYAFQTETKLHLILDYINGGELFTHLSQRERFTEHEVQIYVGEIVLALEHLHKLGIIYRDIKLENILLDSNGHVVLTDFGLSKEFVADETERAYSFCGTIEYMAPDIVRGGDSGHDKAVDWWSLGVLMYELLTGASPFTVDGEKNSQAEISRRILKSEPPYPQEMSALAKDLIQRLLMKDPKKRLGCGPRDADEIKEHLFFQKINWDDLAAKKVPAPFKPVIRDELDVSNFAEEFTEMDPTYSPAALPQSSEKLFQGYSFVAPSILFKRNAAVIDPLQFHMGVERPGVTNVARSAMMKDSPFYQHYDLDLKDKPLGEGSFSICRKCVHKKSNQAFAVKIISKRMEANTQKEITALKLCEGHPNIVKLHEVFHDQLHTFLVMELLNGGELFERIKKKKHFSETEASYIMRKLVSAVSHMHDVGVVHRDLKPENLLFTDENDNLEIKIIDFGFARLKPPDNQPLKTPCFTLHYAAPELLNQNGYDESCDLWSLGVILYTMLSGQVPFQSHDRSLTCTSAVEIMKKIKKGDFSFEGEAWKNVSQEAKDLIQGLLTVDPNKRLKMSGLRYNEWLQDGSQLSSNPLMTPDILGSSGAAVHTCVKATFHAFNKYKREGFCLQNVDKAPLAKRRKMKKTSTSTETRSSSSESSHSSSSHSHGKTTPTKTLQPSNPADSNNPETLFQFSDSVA

## Nc1ncnc2c1ncn2[C@@H]1O[C@H](CSCC[C@H](N)C(=O)O)[C@@H](O)[C@H]1O [SAH]
hDNMT3a; read-out: Reference IC50
  IC50: 0.052 µM
SETDB1 (h); read-out: Reference IC50
  IC50: 1.8 µM
PRMT3 (h); read-out: Reference IC50
  IC50: 0.86 µM
hSMYD2; read-out: Reference IC50
  IC50: 0.16 µM

## CC(C)=CCC[C@H](C)[C@@H]1CC[C@@H](C)c2c1cc(C)c(O)c2O [Compound 4, 7,8-dihydroxyserrulat-14-ene]
[1]
  reduction in the growth: no significant reduction
  % Cell growth: 37%
[2]
  EC50: 5 µM
  GI50: 4.02 µM
  IC50: 5.18 µM
[3]
  % Control Response, agonist (increase in 2-DG uptake relative to insulin response): −45%

## CC(C)=CCC[C@@H]1C(O)Oc2c(C)cc(O)c3c2[C@H]1CC[C@H]3C (stereo partly shown) [Compound 2, 5,18-epoxyserrulat-14-en-8,18-diol]
[4]
  inhibition at 10 µM: 28%
[1]
  % Cell growth: 97%
[5]
  inhibition at 10 µM: 2%
[6]
  inhibition at 10 µM: 19%
hDNMT3a; [9]
  inhibition at 10 µM: 3%
SETDB1 (h); [9]
  inhibition at 10 µM: 43%
[2]
  EC50: 9.07 µM
  GI50: 8.99 µM
  IC50: 9.48 µM
NF-κB; Conc 0.001 μM
  Resp Av %: −7%
NF-κB; Conc 0.01 μM
  Resp Av %: −7%
NF-κB; Conc 0.1 μM
  Resp Av %: −3%
NF-κB; Conc 1 μM
  Resp Av %: 10%
NF-κB; Conc 10 μM
  Resp Av %: 34%
NF-κB; Homo sapiens
  IC50: > 10 µM
Histamine H4; assay year 2014, read-out: % Control Response
  remaining activity at 10 µM: 16%
Histamine H4; assay year 2015, read-out: % Control Response
  remaining activity at 10 µM: -1%
BAZ2B (h) bromodomain
  inhibition at 10 µM: 23%
PRMT3 (h); [9]
  inhibition at 10 µM: 50%
[7]
  inhibition at 10 µM: 9%
hSMYD2; [9]
  inhibition at 10 µM: 5%
CECR2 (h) bromodomain
  inhibition at 10 µM: 25%
[8]
  remaining activity at 10 µM: 3%
BRD3(1) (h) bromodomain
  inhibition at 10 µM: 17%
